From PubChem BioAssay (NCI)
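A five-concentration, 48-hour dose response in 96-well plates underlies each endpoint, interpolated linearly between surrounding concentrations. The concentration for 50% growth inhibition is given as GI50. Definition used: TGI = concentration required for complete inhibition of growth.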

Tests used:
Assay in all cases: DTP human tumour cell line panel, 48 h
CAKI-1 renal = system: CAKI-1 renal
HL-60(TB) leukemia = system: HL-60(TB) leukemia
SK-OV-3 ovarian = system: SK-OV-3 ovarian
TK-10 renal = system: TK-10 renal
MDA-MB-435 = system: MDA-MB-435
HS 578T breast = system: HS 578T breast
OVCAR-3 ovarian = system: OVCAR-3 ovarian
KM12 colon = system: KM12 colon
RPMI-8226 leukemia = system: RPMI-8226 leukemia
DU-145 prostate = system: DU-145 prostate
M14 melanoma = system: M14 melanoma
HCC-2998 colon = system: HCC-2998 colon
U251 CNS = system: U251 CNS
SR leukemia = system: SR leukemia
UACC-62 melanoma = system: UACC-62 melanoma
NCI-H226 lung = system: NCI-H226 lung
K-562 leukemia = system: K-562 leukemia
SK-MEL-2 melanoma = system: SK-MEL-2 melanoma
SF-539 CNS = system: SF-539 CNS
OVCAR-5 ovarian = system: OVCAR-5 ovarian
MOLT-4 leukemia = system: MOLT-4 leukemia
UO-31 renal = system: UO-31 renal
HCT-116 colon = system: HCT-116 colon
SNB-19 CNS = system: SNB-19 CNS
LOX IMVI melanoma = system: LOX IMVI melanoma
EKVX NSCLC = system: EKVX NSCLC
ACHN renal = system: ACHN renal
786-0 renal = system: 786-0 renal
CCRF-CEM leukemia = system: CCRF-CEM leukemia
SF-295 CNS = system: SF-295 CNS
SW-620 colon = system: SW-620 colon
SK-MEL-5 melanoma = system: SK-MEL-5 melanoma
HT29 colon = system: HT29 colon
HCT-15 colon = system: HCT-15 colon
A549 NSCLC = system: A549 NSCLC
RXF 393 renal = system: RXF 393 renal
A498 renal = system: A498 renal
SK-MEL-28 melanoma = system: SK-MEL-28 melanoma
OVCAR-4 ovarian = system: OVCAR-4 ovarian
MCF7 breast = system: MCF7 breast
IGROV1 ovarian = system: IGROV1 ovarian
UACC-257 melanoma = system: UACC-257 melanoma
COLO 205 colon = system: COLO 205 colon
NCI/ADR-RES ovarian = system: NCI/ADR-RES ovarian
HOP-92 NSCLC = system: HOP-92 NSCLC
OVCAR-8 ovarian = system: OVCAR-8 ovarian
NCI-H460 lung = system: NCI-H460 lung
HOP-62 NSCLC = system: HOP-62 NSCLC
NCI-H522 lung = system: NCI-H522 lung
SN12C renal = system: SN12C renal
BT-549 breast = system: BT-549 breast
PC-3 prostate = system: PC-3 prostate
MDA-MB-231 breast = system: MDA-MB-231 breast
NCI-H23 lung = system: NCI-H23 lung
SF-268 CNS = system: SF-268 CNS

N=C(N)c1ccc(-c2ccc(-c3cc(Cl)cc(Cl)c3)o2)o1
GI50 (CAKI-1 renal): 1.7 µM | TGI (CAKI-1 renal): 3.11 µM | GI50 (HL-60(TB) leukemia): 1.62 µM | TGI (HL-60(TB) leukemia): 3.49 µM | GI50 (SK-OV-3 ovarian): 1.8 µM | TGI (SK-OV-3 ovarian): 3.34 µM | GI50 (TK-10 renal): 1.85 µM | TGI (TK-10 renal): 3.39 µM | GI50 (MDA-MB-435): 1.61 µM | TGI (MDA-MB-435): 2.99 µM | GI50 (HS 578T breast): 2.22 µM | TGI (HS 578T breast): 5.02 µM | GI50 (OVCAR-3 ovarian): 1.7 µM | TGI (OVCAR-3 ovarian): 3.14 µM | GI50 (KM12 colon): 1.65 µM | TGI (KM12 colon): 3.18 µM | GI50 (RPMI-8226 leukemia): 2.13 µM | TGI (RPMI-8226 leukemia): 4.63 µM | GI50 (DU-145 prostate): 1.78 µM | TGI (DU-145 prostate): 3.24 µM

O=c1c2cc(Br)ccc2ncn1COCc1ccccc1
TGI (M14 melanoma): > 100 µM | TGI (HCC-2998 colon): > 100 µM | TGI (U251 CNS): > 100 µM | TGI (SR leukemia): > 100 µM | TGI (UACC-62 melanoma): > 100 µM | TGI (NCI-H226 lung): > 1 µM | TGI (K-562 leukemia): > 100 µM | TGI (SK-MEL-2 melanoma): > 100 µM | TGI (SF-539 CNS): > 100 µM | TGI (OVCAR-5 ovarian): > 100 µM | TGI (MOLT-4 leukemia): > 100 µM | TGI (UO-31 renal): > 100 µM | TGI (HCT-116 colon): > 100 µM | TGI (SNB-19 CNS): > 100 µM | TGI (LOX IMVI melanoma): > 100 µM | TGI (SK-OV-3 ovarian): > 100 µM | TGI (EKVX NSCLC): > 100 µM | TGI (ACHN renal): 74 µM | TGI (786-0 renal): > 100 µM | TGI (TK-10 renal): > 100 µM | TGI (CCRF-CEM leukemia): > 100 µM | TGI (SF-295 CNS): > 100 µM | TGI (SW-620 colon): > 100 µM | TGI (SK-MEL-5 melanoma): > 100 µM | TGI (HT29 colon): > 1 µM | TGI (HCT-15 colon): > 100 µM | TGI (A549 NSCLC): > 100 µM | TGI (RXF 393 renal): > 100 µM | TGI (A498 renal): > 100 µM | TGI (SK-MEL-28 melanoma): > 100 µM | TGI (MDA-MB-435): > 100 µM | TGI (OVCAR-4 ovarian): > 100 µM | TGI (MCF7 breast): > 100 µM | TGI (IGROV1 ovarian): > 100 µM | TGI (UACC-257 melanoma): > 100 µM | TGI (OVCAR-3 ovarian): > 100 µM | TGI (COLO 205 colon): > 100 µM | TGI (KM12 colon): > 100 µM | TGI (NCI/ADR-RES ovarian): > 1 µM | TGI (HOP-92 NSCLC): > 100 µM | TGI (OVCAR-8 ovarian): > 1 µM | TGI (DU-145 prostate): > 100 µM

COC(=O)c1ccc(CN2C(=O)C(Cl)=C(Nc3ccc(OC)c(Cl)c3)C2=O)cc1
GI50 (M14 melanoma): 32.6 µM | TGI (M14 melanoma): > 50 µM | GI50 (U251 CNS): 7.26 µM | TGI (U251 CNS): 19.5 µM | GI50 (SR leukemia): 4.08 µM | TGI (SR leukemia): 36.9 µM | GI50 (UACC-62 melanoma): 7.32 µM | TGI (UACC-62 melanoma): 21.1 µM | GI50 (NCI-H460 lung): 14.8 µM | TGI (NCI-H460 lung): > 50 µM | GI50 (CAKI-1 renal): 17.3 µM | TGI (CAKI-1 renal): > 50 µM | GI50 (K-562 leukemia): 4.17 µM | TGI (K-562 leukemia): > 50 µM | GI50 (HOP-62 NSCLC): 22.7 µM | TGI (HOP-62 NSCLC): > 50 µM | GI50 (SK-MEL-2 melanoma): 20.5 µM | TGI (SK-MEL-2 melanoma): > 50 µM | GI50 (OVCAR-5 ovarian): 17.8 µM | TGI (OVCAR-5 ovarian): 44.1 µM | GI50 (MOLT-4 leukemia): 5.83 µM | TGI (MOLT-4 leukemia): 49 µM | GI50 (UO-31 renal): 31.8 µM | TGI (UO-31 renal): > 50 µM | GI50 (HCT-116 colon): 13.3 µM | TGI (HCT-116 colon): > 50 µM | GI50 (SNB-19 CNS): 5.93 µM | TGI (SNB-19 CNS): 22.3 µM | GI50 (LOX IMVI melanoma): 5.66 µM | TGI (LOX IMVI melanoma): 26.7 µM | GI50 (HL-60(TB) leukemia): 32 µM | TGI (HL-60(TB) leukemia): > 50 µM | GI50 (SK-OV-3 ovarian): 33.9 µM | TGI (SK-OV-3 ovarian): > 50 µM | GI50 (EKVX NSCLC): 22.3 µM | TGI (EKVX NSCLC): > 50 µM | GI50 (ACHN renal): 8.44 µM | TGI (ACHN renal): 18.4 µM | GI50 (786-0 renal): 36.2 µM | TGI (786-0 renal): > 50 µM | GI50 (TK-10 renal): > 50 µM | TGI (TK-10 renal): > 50 µM | GI50 (CCRF-CEM leukemia): > 50 µM | TGI (CCRF-CEM leukemia): > 50 µM | GI50 (SF-295 CNS): 20.4 µM | TGI (SF-295 CNS): > 50 µM | GI50 (SW-620 colon): > 50 µM | TGI (SW-620 colon): > 50 µM | GI50 (SK-MEL-5 melanoma): 31.6 µM | TGI (SK-MEL-5 melanoma): > 50 µM | GI50 (HCT-15 colon): 5.2 µM | TGI (HCT-15 colon): 42.4 µM | GI50 (NCI-H522 lung): 3.84 µM | TGI (NCI-H522 lung): 21.5 µM | GI50 (A549 NSCLC): 26.2 µM | TGI (A549 NSCLC): > 50 µM | GI50 (RXF 393 renal): 11.2 µM | TGI (RXF 393 renal): 26.1 µM | GI50 (A498 renal): > 50 µM | TGI (A498 renal): > 50 µM | GI50 (SK-MEL-28 melanoma): 8.48 µM | TGI (SK-MEL-28 melanoma): 30.7 µM | GI50 (MDA-MB-435): 47.3 µM | TGI (MDA-MB-435): > 50 µM | GI50 (HS 578T breast): 43 µM | TGI (HS 578T breast): > 50 µM | GI50 (MCF7 breast): 12.6 µM | TGI (MCF7 breast): > 50 µM | GI50 (IGROV1 ovarian): 10.6 µM | TGI (IGROV1 ovarian): > 50 µM | GI50 (UACC-257 melanoma): 19.4 µM | TGI (UACC-257 melanoma): > 50 µM | GI50 (OVCAR-3 ovarian): 21.6 µM | TGI (OVCAR-3 ovarian): > 50 µM | GI50 (COLO 205 colon): 17 µM | TGI (COLO 205 colon): > 50 µM | GI50 (SN12C renal): 9.04 µM | TGI (SN12C renal): 33.7 µM | GI50 (BT-549 breast): 11.3 µM | TGI (BT-549 breast): 26.7 µM | GI50 (KM12 colon): 5.42 µM | TGI (KM12 colon): > 50 µM | GI50 (NCI/ADR-RES ovarian): 12.7 µM | TGI (NCI/ADR-RES ovarian): 30.9 µM | GI50 (PC-3 prostate): 44.3 µM | TGI (PC-3 prostate): > 50 µM | GI50 (HOP-92 NSCLC): > 50 µM | TGI (HOP-92 NSCLC): > 50 µM | GI50 (MDA-MB-231 breast): 7.14 µM | TGI (MDA-MB-231 breast): 26.3 µM | GI50 (RPMI-8226 leukemia): > 50 µM | TGI (RPMI-8226 leukemia): > 50 µM | GI50 (NCI-H23 lung): 14.4 µM | TGI (NCI-H23 lung): 39.3 µM | GI50 (SF-268 CNS): 15.4 µM | TGI (SF-268 CNS): > 50 µM | GI50 (OVCAR-8 ovarian): 23.8 µM | TGI (OVCAR-8 ovarian): > 50 µM | GI50 (DU-145 prostate): 21.8 µM | TGI (DU-145 prostate): > 50 µM
